Laboratory results from patent US20150174158A1, “[…] NITRIC OXIDE FOR TREATING RESPIRATORY DISEASES” (Advanced Inhalation Therapies (AIT) Ltd., priority 2012, published 2015).

Key:
[1] = gNO concentrations below 200 ppm, 6 hours/day for 28 days; cited from earlier work
[2] = tested on: five planktonic species of methicillin resistant S. aureous (MRSA); details: 1,600 ppm hours of gNO; cited from earlier work
broad range of microbes = details: gNO at 160-200 ppm; in vitro, ex vivo and in animal models; cited from earlier work
[3] = tested on: chronic, non-healing wound; details: topical 200 ppm gNO, within the first three days; cited from earlier work
[4] = tested on: influenza A/victoria/H3N2; details: 160 ppm gNO, cited from earlier work
[5] = tested on: all microorganisms tested; details: 200 ppm gNO, cited from earlier work
[6] = Phase I open label safety study of intermittent 160 ppm gNO inhalation: adverse events, vital signs, oxygenation, NO2; assay type: in vivo, human
Description: 10 healthy adult volunteer subjects (5 males, 5 females), aged 20 to 62 years, were enrolled in the study after screening their medical history, a physical examination, pulmonary function tests and blood values. Exclusion criteria included individuals less than 19 years of age, pregnant females and unwilling to practice birth control during the study, diagnosed with pulmonary disease, epistaxis, hemoptysis, methemoglobinemia, organ transplant recipient or receiving antibiotic therapy.
(§1) After obtaining informed consent, treatment was initiated within 5 days of enrollment. Subjects were housed in a hospital ward and received 160 ppm gNO for 30 minutes every four hours (Q4h), five times a day, for five consecutive days by inhalation. Subjects returned for follow-up evaluations 3, 7 and 21 days after the final gNO administration. Subject safety was determined by monitoring vital signs, methemoglobin levels, lung function, blood chemistry, hematology, prothrombin time, inflammatory cytokine/chemokines levels and endothelial activation. These parameters were compared to baseline and at various time-points during and after gNO administration.
Subjects were administered gNO through a modified disposable mouthpiece to maximize mixing. Inspiration was spontaneously initiated by the subject from a conventional intermittent positive pressure breathing respirator (Mark-7, Carefusion, USA) in fixed flow mode delivering 48 liters per minute (LPM). Flows of gas were verified with a calibrated mass flow meter (TSI, USA). Gaseous nitric oxide (gNO, obtained at INOmax, Ikaria, USA) at a concentration of 800 ppm delivered at a flow of 12 LPM was titrated into a distal delivery port on the mouth piece connected to the respirator during inspiratory phase only (pressure switch). The Mark 7 respirator was supplied by an air/oxygen blender (Bird Sentry, Carefusion, USA) set to deliver 26% oxygen.
The levels of gNO, NO2, O2 and methemoglobin were monitored during the administration of gNO. […] Inspiratory NO, NO2 and O2 levels were continuously monitored by sampling from the mouthpiece sample port located about 6 millimeters from the mouth of the subject with an AeroNOx (Pulmonox, AB, Canada) NO, NO2 and O2 electrochemical analyzer. Delivery safety was determined by the number of occasions that NO2 exceeded 5 ppm, gNO exceeding 10% variation and O2 dropping below 20% during gNO administration. […]
General medical examinations were performed by a pulmonary physician on screening and on days 8, 12 and 26 to obtain oxygenation and vital sign measurements. […] Oxygenation was measured with a pulse oximeter (Rad 57, Masimo Corporation, USA) which was used according to manufacturer's guidelines to measure functional oxygen saturation of arterial hemoglobin (SpO2) and heart rate. These parameters were measured continuously during every gNO administration and for 3.5 hours after the first treatment of the day. Cardiovascular status was determined by monitoring heart rate, blood pressure, respiratory rate and temperature. Values were recorded prior to the start of each gNO administration, following a 5 minute rest. During treatments, vital signs (except temperature) were also performed 15 minutes after the start of the treatment and at the end of gNO administration and recorded. After the first treatment each day, vital signs were recorded at every 30 minutes until the start of the second gNO administration of the day.

[7] = tested on: TNF, IL-6, IL-8, IL-10, IL-1b and IL-12p70; test: Phase I safety study: plasma cytokines by cytometric bead array; assay type: in vivo, human; details: vs baseline, all sampling time points
Description: Hematological assessment included a complete blood count and differentials (hemoglobin, hematocrit, red blood cell count, white blood cell count, white blood cell differential, and platelet count) were obtained in order to monitor blood chemistry, hematology and inflammation measurements. The blood chemistry profile included serum creatinine, and liver function tests such as aspartate aminotransferase (AST) serum glutamic oxaloacetic transaminase (SGOT), alkaline phosphatase, and gamma-glutamyl transferase (GGT). The effect of gNO on coagulation was determined by the prothrombin time (PT) and its derived measures of prothrombin ratio (PR) and international normalized ratio (INR). Heparinized plasma was collected at baseline and on days 1, 2, 4, and 5 of gNO administration, and on follow-up days 3, 7 and 21 and frozen at −80° C. Plasma cytokine levels were assessed using the human inflammation cytokine bead array kit (BD Bioscience, Canada). Plasma levels of angiopoietin Ang-1 and Ang-2 were determined by ELISA (R&D Systems, USA).
To assess whether gNO inhalation may cause inflammation or endothelial activation cytokines and the vascular endothelium activation factors Ang-1 and Ang-2 were quantified in peripheral plasma at baseline at various time points thereafter. […]

[8] = Phase I safety study: hematology, blood chemistry, coagulation; assay type: in vivo, human; details: baseline 0.15 (SD=0.12); SD=0.19; p=0.104
Experimental: as §1
Hematological assessment included a complete blood count and differentials (hemoglobin, hematocrit, red blood cell count, white blood cell count, white blood cell differential, and platelet count) were obtained in order to monitor blood chemistry, hematology and inflammation measurements. […] The effect of gNO on coagulation was determined by the prothrombin time (PT) and its derived measures of prothrombin ratio (PR) and international normalized ratio (INR). […] Plasma cytokine levels were assessed using the human inflammation cytokine bead array kit (BD Bioscience, Canada). Plasma levels of angiopoietin Ang-1 and Ang-2 were determined by ELISA (R&D Systems, USA).

P. aeruginosa (ATCC) = details: 200 ppm gNO; saline; cited from earlier work

[N]=O [gNO, nitric oxide]
deaths [1]: No deaths occurred
population of planktonic MRSA strains [2]: A reduction in the population
antimicrobial effects (broad range of microbes): potent antimicrobial effects
biofilm presence [3]: no longer visibly present
infectivity (plaque formation) [4]: capable of reducing the infectivity
anti-viral effect, intermittent vs single exposure ([4]; three 30 minute treatments Q4h vs one 30 minute dose): more evident in the intermittent form of exposure
bactericidal effect ([5]; all microorganisms tested): complete bactericidal effect
reduction in CFU/mL ([5]; every bacteria challenged): ≥ 3 login CFU/mL
minor adverse events ([6]; 160 ppm gNO 30 min, 5 times a day, 5 days, 10 healthy adults): Three minor adverse events were reported
significant adverse events ([6]; 160 ppm gNO 30 min, 5 times a day, 5 days, 10 healthy adults, 250 administrations): no significant adverse events were observed
vital signs ([6]; during and after gNO administration, 160 ppm): remained within normal limits
lowest observed SpO2 ([6]; during or after 160 ppm gNO administration): 93%
mean NO2 level during the treatments ([6]; inspired gas at mouthpiece, 160 ppm gNO, 95% confidence level 2.17-2.47): 2.32 ppm
plasma cytokine levels [7]: unaffected
eosinophil cell numbers, end of study [8]: 0.19 giga/L
LD100 (P. aeruginosa (ATCC)): 3 h
Latent Period (P. aeruginosa (ATCC)): 1 h
−2.5 Log10 (P. aeruginosa (ATCC)): 2.1 hours
